Measured values taken from paper PMC11744575 (Advanced Science, 2024).

Legend:
primary hepatocytes = test: Intracellular triglyceride content and BODIPY staining in primary hepatocytes; assay type: cell-based, mouse; details: for effect of co-incubation on triglyceride levels within BBR-treated hepatocytes: co-incubation with BBR in the presence of OA
Protocol: To establish an in vitro model of hepatic steatosis, hepatocytes were treated with 0.2 mM oleic acid (OA, O7501, Sigma‐Aldrich) for 16 h. OA was pre‐incubated with 10% bovine serum albumin (BSA, Sigma‐Aldrich) (1:4) for 1 h and then added to the cell culture medium along with different compounds.
Primary hepatocytes were washed three times with phosphate‐buffered saline (PBS) and then subjected to three repeated freeze‐thaw cycles. The released intracellular triglyceride content was then measured using a commercial assay kit (Jiancheng). Protein content was used for normalization.
The lipid droplets in the hepatocytes in 6‐well plates were visualized by first washing the cells and then immersing them in a serum‐free medium. Subsequently, […] BODIPY 493/503 (Sigma‐Aldrich) was added to the medium, and the cells were incubated for 20 min for staining, followed by imaging with confocal microscopy (Olympus, Tokyo, Japan).

[1] = test system: Primary cultured mouse hepatocytes; test: Cell viability (CCK8) cytotoxicity assay; assay type: cell-based
Excerpt: C) BODIPY staining in different groups; images are shown under 600× or 1800× magnification, scale bar = 100 µm. D) Flow scheme of RNA sequencing.
Primary hepatocytes were isolated from the livers of 6‐week‐old male C57BL/6J mice as previously described.^[ [25] ^] Briefly, the liver was thoroughly digested by injection of type IV collagenase (C4‐BIOC, Sigma‐Aldrich, Louis, MO, USA) via the portal vein. The perfused liver was excised, dispersed, and filtered through a 70 µm filter, and the digestion was terminated by adding cold Dulbecco's modified Eagle's medium (DMEM, #11 960 044, Gibco, Grand Island, NY, USA). The cell suspension was centrifuged at 4 °C at 50 g for 5 min to remove the supernatant and debris. An equal volume of DMEM and Percoll (CAS 65455‐52‐9, Sigma‐Aldrich) was then mixed thoroughly and centrifuged at 50 g for 15 min at 4 °C. The viable cell layer at the bottom was collected and further centrifuged in DMEM to prepare the cell seeding plate. Cells were seeded in a 6‐well plate at a density of 1 × 10^6 cells per well and cultured in DMEM medium supplemented with 10% fetal bovine serum (FBS, Gibco) at 37 °C in a 5% CO2 incubator.

[2] = test system: peroxisome proliferator‐activated receptor alpha (PPARα); parameters: method as in PMID 18274627; details: cited from earlier work
[3] = target: T1, recombinant human PPARγ protein (Homo sapiens, UniProt P37231); test: MicroScale Thermophoresis (MST) of rosiglitazone binding with/without BBR; details: rosiglitazone affinity in presence/absence of BBR
T1 construct: purchased Sino Biotechnology, Beijing, China
T1 sequence (P37231 1-505): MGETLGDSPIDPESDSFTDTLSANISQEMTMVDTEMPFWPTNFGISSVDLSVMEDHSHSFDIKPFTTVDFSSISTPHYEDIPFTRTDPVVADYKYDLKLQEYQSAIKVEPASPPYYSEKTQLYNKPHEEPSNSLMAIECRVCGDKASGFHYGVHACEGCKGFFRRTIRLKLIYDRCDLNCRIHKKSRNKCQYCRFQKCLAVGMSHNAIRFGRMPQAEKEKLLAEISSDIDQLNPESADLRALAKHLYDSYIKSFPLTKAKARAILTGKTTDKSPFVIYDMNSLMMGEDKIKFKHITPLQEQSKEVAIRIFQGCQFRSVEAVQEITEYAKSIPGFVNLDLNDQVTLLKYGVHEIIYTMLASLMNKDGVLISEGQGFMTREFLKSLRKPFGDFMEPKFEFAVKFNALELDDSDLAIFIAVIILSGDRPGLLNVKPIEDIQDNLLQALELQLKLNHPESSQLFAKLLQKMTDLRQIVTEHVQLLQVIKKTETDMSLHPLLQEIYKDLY

obese mice models = test system: obese mice models; parameters: method as in PMID 29526820; details: no comparable liver damage in healthy lean mice; cited from earlier work
[4] = test system: peroxisome proliferator‐activated receptor gamma (PPARγ); parameters: method as in PMID 18274627; details: cited from earlier work
[5] = BBR metabolism kinetics with liver S9 fractions; assay type: in vitro ADME, mouse; details: for Km at 2 h: mouse, liver S9 fraction
Protocol: The incubations were carried out for 2 h at 37 °C in a 100 µL reaction volume containing the pooled liver S9 fraction (7.5 mg·mL^−1) and an NADPH‐regenerating system consisting of MgCl2 (40 mM), glucose‐6‐phosphate (40 µM), NADP^+ (8 µM), and glucose 6‐phosphate dehydrogenase (4 U·mL^−1). The reactions were terminated by the addition of 300 µL of ice‐cold acetonitrile containing the internal standard (chlorophenylalanine), followed by rigorous mixing and centrifugation. The supernatants were subsequently analyzed by LC‐MS/MS, employing methodologies detailed in previous publications.^[ [27] ^]
(§1) Briefly, proteins in the samples were precipitated with three volumes of methanol containing an internal standard (chlorophenylalanine). After centrifugation at 30 000 g for 10 min at 4 °C, the supernatant was injected into the LC‐MS/MS system for analysis. Chromatographic separation was conducted using a ZORBAX 300SB C18 column (100 × 2.1 mm, 3.5 µm, Agilent, CA, USA) at 40 °C on a Shimadzu HPLC system.

[6] = Pharmacokinetic profile of BBR and 6-OH-BBR in db/db and lean mice (plasma, liver); assay type: in vivo, mouse
Protocol: Briefly, blood samples (50 µL) were collected at different time points post‐drug administration (no more than three collections per mouse), centrifuged at 4 °C and 8000 g for 5 min, and the upper plasma layer was collected. At 2 and 24 h post‐dosing, the mice were sacrificed, and liver tissues were collected for cryopreservation and prepared as homogenates (W/V: 0.1 g·mL^−1) for drug concentration determinations.
as §1

db/db mice = test: 4-week administration in db/db mice (liver injury, steatosis, glucose profiles); assay type: in vivo, mouse
livers of healthy rats = test system: livers of healthy rats; parameters: method as in PMID 1701930; details: up to 102 weeks of treatment; cited from earlier work
PPARγ target genes = test: qPCR of PPARγ target genes in primary hepatocytes; assay type: cell-based, mouse; details: co-incubation with BBR
Protocol: Tissues or cells were lysed using TRIzol (#1 218 355, Invitrogen, Thermo Fisher Scientific, MA, USA) for subsequent RNA extraction through a series of steps involving chloroform extraction and isopropanol and ethanol precipitation. Reverse transcription and cDNA synthesis were performed using a reverse transcription and cDNA synthesis kit (#639 506, Takara Bio Inc., Kusatsu, Shiga, Japan) to synthesize complementary DNA (cDNA) from […] of RNA. Quantitative real‐time PCR analysis was conducted utilizing SYBR Green pre‐mix (Q111‐02, Vazyme Biotech Co., Ltd, Nanjing, China) and subsequently analyzed employing the Roche real‐time PCR system. The mRNA expression levels were calculated and quantified utilizing the relative standard curve method and subsequently normalized to the expression of the housekeeping gene Gapdh. The primer sequences utilized for qPCR analysis are listed in Table S2 (Supporting Information).

[7] = substrate: CC(=O)Nc1ccc(O)cc1; test: Enzyme kinetic study in liver S9, Cyp1a2; assay type: in vitro ADME, mouse; details: 37.0 °C
[8] = db/db vs lean mice, single 20 mg·kg^−1 i.g.
[9] = 25 mg·kg^−1 gavage once daily, 4 weeks
[10] = db/db mice compared to lean littermates after BBR 20 mg·kg^−1 i.g.

CCC(=O)NC[C@H](Cc1ccc(OCCc2nc(-c3ccccc3)oc2C)cc1)N/C(C)=C\C(=O)c1ccc(C(F)(F)F)cc1 [GW6471]
effect of co-incubation on triglyceride levels within BBR-treated hepatocytes (primary hepatocytes): failed to mitigate

CCc1oc2ccccc2c1C(=O)c1cc(Br)c(O)c(Br)c1 [BBR, Benzbromarone]
cytotoxicity at dosages chosen for further experiments ([1]; 15 and 30 µM): non‐toxic | IC50 ([1]; Mus musculus, Hepatocyte, read-out: 50% inhibitory concentration (IC50), cell viability, 24 h incubation, CCK8): 80.3 µM | binding affinity for PPARα [2]: weak binding affinity | lipid accumulation (intracellular triglyceride, BODIPY lipid droplets) (primary hepatocytes; oleic acid (OA)-treated hepatocytes, 16 h): obviously enhanced | nature of BBR binding against the PPARγ agonist rosiglitazone (MST) [3]: competitive | hepatic steatosis and liver injury (obese mice models): specifically exacerbates | binding affinity for PPARγ [4]: weak binding affinity | metabolism catalyzed by liver S9 fractions ([5]; S9 from db/db mice compared to lean mice): marked reduction | Km at 2 h ([5]; lean littermates of db/db mice, liver S9 from Lean mice): 8.14 µg/mL | Km at 2 h ([5]; liver S9 from db/db mice): 9.24 µg/mL | liver concentration at 2 h post-administration ([6]; db/db mouse livers vs lean littermates, 20 mg·kg^−1 i.g.): notably higher | decrease in clearance rate (CL) [6, 8]: 42.5% | increase in area under the curve (AUC), plasma [6, 8]: 1.75 fold | increase in mean residence time (MRT) [6, 8]: 1.54 fold | increase in plasma half-life (T1/2) [6, 8]: 2.03 fold | liver concentration at 24 h ([6]; liver tissues of both groups (db/db and lean), 20 mg·kg^−1 i.g.): undetectable | liver weight, serum transaminases, and creatinine levels (db/db mice; [9]): increases | serum triglyceride and non-esterified fatty acid (NEFA) levels (db/db mice; [9]): reductions | fasting plasma glucose levels (db/db mice; 4-week treatment): significantly decreased | glucose tolerance (db/db mice; 4-week treatment): improved | liver triglyceride levels (db/db mice; 4-week treatment): elevation | pyruvate tolerance and insulin sensitivity (db/db mice; 4-week treatment): diminished | hepatotoxicity in the livers of healthy rats (livers of healthy rats): negligible hepatotoxicity

O=C(Nc1ccccc1)c1cc([N+](=O)[O-])ccc1Cl [GW9662]
effect of co-incubation on triglyceride levels within BBR-treated hepatocytes (primary hepatocytes): notable reduction | effect on BBR-induced upregulation of typical PPARγ target genes (mRNA) (PPARγ target genes): significantly diminished | effect on BBR-mediated exacerbation of hepatic steatosis and liver injury (db/db mice; 1 mg·kg^−1 i.p. with BBR, 4 weeks): markedly mitigated

CCc1oc2cc(O)ccc2c1C(=O)c1cc(Br)c(O)c(Br)c1 [6‐OH‐BBR, 6‐hydroxy‐benzbromarone]
liver concentration at 24 h, db/db vs lean [6, 10]: significantly higher | plasma concentration-time profile (metabolite production) [6, 10]: delayed production

O=C(Nc1ccncc1)c1cc([N+](=O)[O-])ccc1Cl [T0070907]
effect of co-incubation on triglyceride levels within BBR-treated hepatocytes (primary hepatocytes): notable reduction

Cc1ccc(Cn2nc(CCCc3ccc(OC(C)(C)C(=O)O)cc3)[nH]c2=O)cc1 [LY518674]
effect of co-incubation on triglyceride levels within BBR-treated hepatocytes (primary hepatocytes): notable reduction

B1: Cyp1a2 (Mus musculus) (protein)
chain: MAFSQYISLAPELLLATAIFCLVFWMVRASRTQVPKGLKNPPGPWGLPFIGHMLTVGKNPHLSLTRLSQQYGDVLQIRIGSTPVVVLSGLNTIKQALVRQGDDFKGRPDLYSFTLITNGKSMTFNPDSGPVWAARRRLAQDALKSFSIASDPTSASSCYLEEHVSKEANHLVSKLQKAMAEVGHFEPVSQVVESVANVIGAMCFGKNFPRKSEEMLNIVNNSKDFVENVTSGNAVDFFPVLRYLPNPALKRFKTFNDNFVLFLQKTVQEHYQDFNKNSIQDITSALFKHSENYKDNGGLIPEEKIVNIVNDIFGAGFDTVTTAITWSILLLVTWPNVQRKIHEELDTVVGRDRQPRLSDRPQLPYLEAFILEIYRYTSFVPFTIPHSTTRDTSLNGFHIPKERCIYINQWQVNHDEKQWKDPFVFRPERFLTNNNSAIDKTQSEKVMLFGLGKRRCIGEIPAKWEVFLFLAILLQHLEFSVPPGVKVDLTPNYGLTMKPGTCEHVQAWPRFSK
notes: liver S9 fractions from db/db mice or their lean littermates; from tissue; host or cells: pooled liver S9 fraction of db/db mice or lean littermates
Km ([7]; other: Cyp1a2, pooled liver S9, Lean): 45.8 µM | Km ([7]; other: Cyp1a2, pooled liver S9, db/db): 32.5 µM
